Calls of active or inactive are those of the source. The calls are words filed in the database; no cut-off is given here.
What was measured:
[1] = target: T1, Tyrosine-protein phosphatase non-receptor type 7 (Homo sapiens) (UniProt P35236); test: Inhibition of HePTP (unknown origin) using DiFMUP as substrate at 100 uM incubated for 30 mins followed by substrate addition at pH 6.5 by standard phosphatase assay based fluorescence analysis
T1 sequence (whole entry): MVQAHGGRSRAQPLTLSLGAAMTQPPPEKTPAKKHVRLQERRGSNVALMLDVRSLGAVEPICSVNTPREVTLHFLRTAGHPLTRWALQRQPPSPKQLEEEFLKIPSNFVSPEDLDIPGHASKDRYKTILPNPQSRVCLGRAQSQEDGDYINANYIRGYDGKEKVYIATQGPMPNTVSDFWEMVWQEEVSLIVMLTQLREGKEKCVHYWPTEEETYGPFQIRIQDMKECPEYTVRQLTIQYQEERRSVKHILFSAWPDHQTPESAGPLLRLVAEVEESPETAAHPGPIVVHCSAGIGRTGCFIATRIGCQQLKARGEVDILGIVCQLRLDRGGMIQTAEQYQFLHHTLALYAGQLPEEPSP

[2] = target: T2, Tyrosine-protein phosphatase non-receptor type 7 (Homo sapiens, UniProt P35236); test: Inhibition of HePTP (unknown origin) using DiFMUP as substrate incubated for 30 mins followed by substrate addition at pH 6.5 by standard phosphatase assay based fluorescence analysis
T2 sequence (P35236 whole entry): T1 sequence (whole entry)

[3] = target: Receptor-type tyrosine-protein phosphatase F (Homo sapiens) (UniProt P10586); test: Time-dependent inhibition of LAR (unknown origin) using DiFMUP as substrate at 1 uM incubated for 15 to 120 mins followed by substrate addition at pH 6.5 by standard phosphatase assay based fluorescence analysis; settings: TDE = time-dependent effect
[4] = target: T3, Dual specificity protein phosphatase 3 (Homo sapiens, UniProt P51452); test: Inhibition of VHR (unknown origin) using DiFMUP as substrate at 100 uM incubated for 30 mins followed by substrate addition at pH 6.5 by standard phosphatase assay based fluorescence analysis
Target sequence in this assay (P51452 whole entry, looked up): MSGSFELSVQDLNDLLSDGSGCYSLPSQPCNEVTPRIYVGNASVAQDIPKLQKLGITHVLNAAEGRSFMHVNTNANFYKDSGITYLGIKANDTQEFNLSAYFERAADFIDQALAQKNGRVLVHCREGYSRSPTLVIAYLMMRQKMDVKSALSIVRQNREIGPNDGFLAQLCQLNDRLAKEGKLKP

[5] = target: Receptor-type tyrosine-protein phosphatase F (Homo sapiens) (UniProt P10586); test: Inhibition of LAR (unknown origin) assessed as time required for half of the protein to be covalently modified using DiFMUP as substrate incubated for 15 to 120 mins followed by substrate addition at pH 6.5 by standard phosphatase assay based fluorescence analysis
[6] = target: T4, Receptor-type tyrosine-protein phosphatase epsilon (Homo sapiens, UniProt P23469); test: Inhibition of PTPep (unknown origin) using DiFMUP as substrate at 100 uM incubated for 30 mins followed by substrate addition at pH 6.5 by standard phosphatase assay based fluorescence analysis
[7] = target: T5, Tyrosine-protein phosphatase non-receptor type 11 (Homo sapiens, UniProt Q06124); test: Inhibition of SHP2 (unknown origin) using DiFMUP as substrate incubated for 30 mins followed by substrate addition at pH 6.5 by standard phosphatase assay based fluorescence analysis
T5 sequence (Q06124 whole entry): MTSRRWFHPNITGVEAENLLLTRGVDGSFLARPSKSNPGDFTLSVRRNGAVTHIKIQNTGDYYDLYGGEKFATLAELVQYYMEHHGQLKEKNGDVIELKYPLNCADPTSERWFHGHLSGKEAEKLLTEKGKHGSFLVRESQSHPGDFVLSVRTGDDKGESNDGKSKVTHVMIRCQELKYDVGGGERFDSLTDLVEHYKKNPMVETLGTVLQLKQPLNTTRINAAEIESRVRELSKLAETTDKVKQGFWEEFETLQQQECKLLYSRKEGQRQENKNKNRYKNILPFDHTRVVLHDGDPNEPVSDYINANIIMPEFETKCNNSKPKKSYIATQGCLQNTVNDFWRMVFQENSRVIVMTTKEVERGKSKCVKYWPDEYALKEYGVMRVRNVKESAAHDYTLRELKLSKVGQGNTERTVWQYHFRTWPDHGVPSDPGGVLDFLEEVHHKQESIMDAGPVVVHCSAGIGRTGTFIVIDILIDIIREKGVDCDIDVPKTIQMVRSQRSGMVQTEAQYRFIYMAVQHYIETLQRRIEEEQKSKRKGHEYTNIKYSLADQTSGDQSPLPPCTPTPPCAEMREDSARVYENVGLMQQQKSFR

[8] = target: T6, Receptor-type tyrosine-protein phosphatase C (Homo sapiens) (UniProt P08575); test: Inhibition of CD45 (unknown origin) using DiFMUP as substrate at 100 uM incubated for 30 mins followed by substrate addition at pH 6.5 by standard phosphatase assay based fluorescence analysis
T6 sequence (whole entry): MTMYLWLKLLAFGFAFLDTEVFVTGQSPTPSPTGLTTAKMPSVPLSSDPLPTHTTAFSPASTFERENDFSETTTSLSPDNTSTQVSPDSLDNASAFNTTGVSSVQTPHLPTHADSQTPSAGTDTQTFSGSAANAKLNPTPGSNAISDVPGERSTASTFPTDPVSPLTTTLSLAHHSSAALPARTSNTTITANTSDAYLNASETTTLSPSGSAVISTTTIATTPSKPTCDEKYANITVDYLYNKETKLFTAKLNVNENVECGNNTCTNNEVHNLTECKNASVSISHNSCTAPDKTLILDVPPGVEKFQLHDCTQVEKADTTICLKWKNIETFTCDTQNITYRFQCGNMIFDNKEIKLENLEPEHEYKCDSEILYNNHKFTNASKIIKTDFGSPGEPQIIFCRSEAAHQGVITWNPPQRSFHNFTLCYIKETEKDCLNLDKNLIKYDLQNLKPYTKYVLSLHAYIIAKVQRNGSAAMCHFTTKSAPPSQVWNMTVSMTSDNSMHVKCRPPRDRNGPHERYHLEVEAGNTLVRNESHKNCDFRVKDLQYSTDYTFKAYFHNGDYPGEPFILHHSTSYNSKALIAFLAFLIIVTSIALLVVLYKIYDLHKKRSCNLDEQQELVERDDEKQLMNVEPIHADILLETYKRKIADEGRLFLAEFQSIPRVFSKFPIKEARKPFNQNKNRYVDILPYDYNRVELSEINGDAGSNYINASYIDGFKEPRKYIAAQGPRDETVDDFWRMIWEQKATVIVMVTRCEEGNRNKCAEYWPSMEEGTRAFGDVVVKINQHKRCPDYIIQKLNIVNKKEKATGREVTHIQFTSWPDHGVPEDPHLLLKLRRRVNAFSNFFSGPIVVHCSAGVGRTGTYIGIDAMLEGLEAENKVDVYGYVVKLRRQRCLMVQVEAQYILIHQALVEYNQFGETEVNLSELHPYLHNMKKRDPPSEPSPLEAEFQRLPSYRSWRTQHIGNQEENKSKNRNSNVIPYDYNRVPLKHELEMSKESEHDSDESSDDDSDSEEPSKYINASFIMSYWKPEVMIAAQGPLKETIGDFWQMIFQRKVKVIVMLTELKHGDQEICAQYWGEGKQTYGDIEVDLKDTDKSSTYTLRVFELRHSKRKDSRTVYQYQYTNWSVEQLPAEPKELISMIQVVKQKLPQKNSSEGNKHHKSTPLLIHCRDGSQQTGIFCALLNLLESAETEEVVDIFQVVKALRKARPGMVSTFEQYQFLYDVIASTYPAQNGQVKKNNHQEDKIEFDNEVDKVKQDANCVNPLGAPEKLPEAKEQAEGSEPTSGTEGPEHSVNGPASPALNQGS

[9] = target: Low molecular weight phosphotyrosine protein phosphatase (Homo sapiens) (UniProt P24666); test: Inhibition of LMWPTP (unknown origin) using DiFMUP as substrate at 100 uM incubated for 30 mins followed by substrate addition at pH 6.5 by standard phosphatase assay based fluorescence analysis
[10] = target: T7, Receptor-type tyrosine-protein phosphatase mu (Homo sapiens, UniProt P28827); test: Time-dependent inhibition of PTPmu (unknown origin) using DiFMUP as substrate at 10 uM incubated for 5 to 120 mins followed by substrate addition at pH 6.5 by standard phosphatase assay based fluorescence analysis; settings: TDE = time-dependent effect
[11] = target: T8, Receptor-type tyrosine-protein phosphatase C (Homo sapiens, UniProt P08575); test: Inhibition of CD45 (unknown origin) using DiFMUP as substrate incubated for 30 mins followed by substrate addition at pH 6.5 by standard phosphatase assay based fluorescence analysis
T8 sequence (P08575 whole entry): T6 sequence (whole entry)

[12] = target: T6, Receptor-type tyrosine-protein phosphatase C (Homo sapiens); test: Time dependent inhibition of CD45 (unknown origin) using DiFMUP as substrate at 10 uM incubated for 5 to 120 mins followed by substrate addition at pH 6.5 by standard phosphatase assay based fluorescence analysis; settings: TDE = time-dependent effect
[13] = target: T9, Tyrosine-protein phosphatase non-receptor type 2 (Homo sapiens, UniProt P17706); test: Inhibition of TCPTP (unknown origin) using DiFMUP as substrate incubated for 30 mins followed by substrate addition at pH 6.5 by standard phosphatase assay based fluorescence analysis
T9 sequence (P17706 whole entry): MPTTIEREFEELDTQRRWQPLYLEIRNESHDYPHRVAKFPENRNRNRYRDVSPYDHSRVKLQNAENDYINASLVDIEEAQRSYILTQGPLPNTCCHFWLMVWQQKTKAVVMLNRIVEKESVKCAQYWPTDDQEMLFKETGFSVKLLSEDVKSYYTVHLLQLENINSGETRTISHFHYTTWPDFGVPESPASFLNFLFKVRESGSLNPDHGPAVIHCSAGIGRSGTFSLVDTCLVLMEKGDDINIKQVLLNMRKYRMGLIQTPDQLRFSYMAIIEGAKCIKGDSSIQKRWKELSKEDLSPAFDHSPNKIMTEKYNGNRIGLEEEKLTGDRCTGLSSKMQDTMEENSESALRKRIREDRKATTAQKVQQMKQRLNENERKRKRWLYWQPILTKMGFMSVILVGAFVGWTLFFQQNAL

[14] = target: T4, Receptor-type tyrosine-protein phosphatase epsilon; test: Inhibition of PTPep (unknown origin) using DiFMUP as substrate incubated for 30 mins followed by substrate addition at pH 6.5 by standard phosphatase assay based fluorescence analysis
[15] = target: T3, Dual specificity protein phosphatase 3; test: Inhibition of VHR (unknown origin) using DiFMUP as substrate incubated for 30 mins followed by substrate addition at pH 6.5 by standard phosphatase assay based fluorescence analysis
Target sequence in this assay (P51452 whole entry): as the sequence (P51452 whole entry, looked up) above

[16] = target: T10, Tyrosine-protein phosphatase non-receptor type 11 (Homo sapiens) (UniProt Q06124); test: Inhibition of SHP2 (unknown origin) using DiFMUP as substrate at 100 uM incubated for 30 mins followed by substrate addition at pH 6.5 by standard phosphatase assay based fluorescence analysis
T10 sequence (whole entry): T5 sequence (Q06124 whole entry)

[17] = target: Receptor-type tyrosine-protein phosphatase F (Homo sapiens) (UniProt P10586); test: Inhibition of LAR (unknown origin) using DiFMUP as substrate incubated for 30 mins followed by substrate addition at pH 6.5 by standard phosphatase assay based fluorescence analysis
[18] = target: Receptor-type tyrosine-protein phosphatase F (Homo sapiens) (UniProt P10586); test: Inhibition of LAR (unknown origin) using DiFMUP as substrate at 100 uM incubated for 30 mins followed by substrate addition at pH 6.5 by standard phosphatase assay based fluorescence analysis
[19] = target: T7, Receptor-type tyrosine-protein phosphatase mu; test: Inhibition of PTPmu (unknown origin) using DiFMUP as substrate at 100 uM incubated for 30 mins followed by substrate addition at pH 6.5 by standard phosphatase assay based fluorescence analysis
[20] = target: T11, Tyrosine-protein phosphatase non-receptor type 2 (Homo sapiens) (UniProt P17706); test: Inhibition of TCPTP (unknown origin) using DiFMUP as substrate at 100 uM incubated for 30 mins followed by substrate addition at pH 6.5 by standard phosphatase assay based fluorescence analysis
T11 sequence (whole entry): T9 sequence (P17706 whole entry)

[21] = target: T7, Receptor-type tyrosine-protein phosphatase mu; test: Inhibition of PTPmu (unknown origin) using DiFMUP as substrate incubated for 30 mins followed by substrate addition at pH 6.5 by standard phosphatase assay based fluorescence analysis
[22] = target: Receptor-type tyrosine-protein phosphatase F (Homo sapiens) (UniProt P10586); test: Time-dependent inhibition of LAR (unknown origin) using DiFMUP as substrate at 50 uM incubated for 15 to 120 mins followed by substrate addition at pH 6.5 by standard phosphatase assay based fluorescence analysis; settings: TDE = time-dependent effect

Low molecular weight phosphotyrosine protein phosphatase (Homo sapiens), sequence (P24666 whole entry, looked up): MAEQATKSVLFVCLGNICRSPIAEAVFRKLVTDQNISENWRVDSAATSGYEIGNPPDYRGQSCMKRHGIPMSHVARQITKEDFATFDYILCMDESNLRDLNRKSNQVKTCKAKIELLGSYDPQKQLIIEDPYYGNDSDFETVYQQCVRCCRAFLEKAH
T7 sequence (P28827 whole entry): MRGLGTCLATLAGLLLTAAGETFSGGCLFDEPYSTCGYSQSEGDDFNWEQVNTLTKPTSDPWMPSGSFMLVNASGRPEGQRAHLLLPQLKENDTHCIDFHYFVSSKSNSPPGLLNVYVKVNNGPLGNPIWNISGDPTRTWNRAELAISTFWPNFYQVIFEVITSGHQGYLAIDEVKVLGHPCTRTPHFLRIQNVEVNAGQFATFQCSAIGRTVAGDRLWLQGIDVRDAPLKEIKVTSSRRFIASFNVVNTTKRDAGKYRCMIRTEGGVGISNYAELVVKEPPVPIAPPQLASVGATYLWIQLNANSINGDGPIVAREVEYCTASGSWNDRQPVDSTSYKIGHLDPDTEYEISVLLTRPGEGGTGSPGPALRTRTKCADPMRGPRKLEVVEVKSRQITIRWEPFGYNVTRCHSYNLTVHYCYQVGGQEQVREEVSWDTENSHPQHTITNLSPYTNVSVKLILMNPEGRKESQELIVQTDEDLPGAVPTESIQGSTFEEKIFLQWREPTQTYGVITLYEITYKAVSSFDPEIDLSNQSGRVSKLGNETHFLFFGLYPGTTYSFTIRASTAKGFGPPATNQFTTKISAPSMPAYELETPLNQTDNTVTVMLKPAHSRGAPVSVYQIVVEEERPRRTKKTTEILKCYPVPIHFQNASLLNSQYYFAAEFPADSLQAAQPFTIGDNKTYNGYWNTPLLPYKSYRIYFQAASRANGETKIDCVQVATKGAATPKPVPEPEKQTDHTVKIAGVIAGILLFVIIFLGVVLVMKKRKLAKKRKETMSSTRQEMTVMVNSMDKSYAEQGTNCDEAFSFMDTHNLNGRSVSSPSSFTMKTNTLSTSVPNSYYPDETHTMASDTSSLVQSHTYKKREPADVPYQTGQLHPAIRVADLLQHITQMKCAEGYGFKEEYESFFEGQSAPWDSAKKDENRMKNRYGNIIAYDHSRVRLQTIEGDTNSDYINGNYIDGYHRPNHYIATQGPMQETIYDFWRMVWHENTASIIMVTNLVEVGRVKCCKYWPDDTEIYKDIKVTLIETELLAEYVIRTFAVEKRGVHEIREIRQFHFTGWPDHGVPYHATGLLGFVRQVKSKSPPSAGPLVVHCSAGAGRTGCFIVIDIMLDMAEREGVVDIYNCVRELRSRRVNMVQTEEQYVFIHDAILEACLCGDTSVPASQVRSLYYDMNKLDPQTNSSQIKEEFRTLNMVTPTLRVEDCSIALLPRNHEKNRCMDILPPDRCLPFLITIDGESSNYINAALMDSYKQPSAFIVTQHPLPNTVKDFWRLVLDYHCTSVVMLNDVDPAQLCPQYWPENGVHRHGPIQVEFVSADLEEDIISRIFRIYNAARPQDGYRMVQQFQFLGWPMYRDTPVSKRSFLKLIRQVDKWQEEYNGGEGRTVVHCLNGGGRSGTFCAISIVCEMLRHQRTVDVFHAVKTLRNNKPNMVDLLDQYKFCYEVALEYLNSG
Receptor-type tyrosine-protein phosphatase F (Homo sapiens), sequence (P10586 whole entry): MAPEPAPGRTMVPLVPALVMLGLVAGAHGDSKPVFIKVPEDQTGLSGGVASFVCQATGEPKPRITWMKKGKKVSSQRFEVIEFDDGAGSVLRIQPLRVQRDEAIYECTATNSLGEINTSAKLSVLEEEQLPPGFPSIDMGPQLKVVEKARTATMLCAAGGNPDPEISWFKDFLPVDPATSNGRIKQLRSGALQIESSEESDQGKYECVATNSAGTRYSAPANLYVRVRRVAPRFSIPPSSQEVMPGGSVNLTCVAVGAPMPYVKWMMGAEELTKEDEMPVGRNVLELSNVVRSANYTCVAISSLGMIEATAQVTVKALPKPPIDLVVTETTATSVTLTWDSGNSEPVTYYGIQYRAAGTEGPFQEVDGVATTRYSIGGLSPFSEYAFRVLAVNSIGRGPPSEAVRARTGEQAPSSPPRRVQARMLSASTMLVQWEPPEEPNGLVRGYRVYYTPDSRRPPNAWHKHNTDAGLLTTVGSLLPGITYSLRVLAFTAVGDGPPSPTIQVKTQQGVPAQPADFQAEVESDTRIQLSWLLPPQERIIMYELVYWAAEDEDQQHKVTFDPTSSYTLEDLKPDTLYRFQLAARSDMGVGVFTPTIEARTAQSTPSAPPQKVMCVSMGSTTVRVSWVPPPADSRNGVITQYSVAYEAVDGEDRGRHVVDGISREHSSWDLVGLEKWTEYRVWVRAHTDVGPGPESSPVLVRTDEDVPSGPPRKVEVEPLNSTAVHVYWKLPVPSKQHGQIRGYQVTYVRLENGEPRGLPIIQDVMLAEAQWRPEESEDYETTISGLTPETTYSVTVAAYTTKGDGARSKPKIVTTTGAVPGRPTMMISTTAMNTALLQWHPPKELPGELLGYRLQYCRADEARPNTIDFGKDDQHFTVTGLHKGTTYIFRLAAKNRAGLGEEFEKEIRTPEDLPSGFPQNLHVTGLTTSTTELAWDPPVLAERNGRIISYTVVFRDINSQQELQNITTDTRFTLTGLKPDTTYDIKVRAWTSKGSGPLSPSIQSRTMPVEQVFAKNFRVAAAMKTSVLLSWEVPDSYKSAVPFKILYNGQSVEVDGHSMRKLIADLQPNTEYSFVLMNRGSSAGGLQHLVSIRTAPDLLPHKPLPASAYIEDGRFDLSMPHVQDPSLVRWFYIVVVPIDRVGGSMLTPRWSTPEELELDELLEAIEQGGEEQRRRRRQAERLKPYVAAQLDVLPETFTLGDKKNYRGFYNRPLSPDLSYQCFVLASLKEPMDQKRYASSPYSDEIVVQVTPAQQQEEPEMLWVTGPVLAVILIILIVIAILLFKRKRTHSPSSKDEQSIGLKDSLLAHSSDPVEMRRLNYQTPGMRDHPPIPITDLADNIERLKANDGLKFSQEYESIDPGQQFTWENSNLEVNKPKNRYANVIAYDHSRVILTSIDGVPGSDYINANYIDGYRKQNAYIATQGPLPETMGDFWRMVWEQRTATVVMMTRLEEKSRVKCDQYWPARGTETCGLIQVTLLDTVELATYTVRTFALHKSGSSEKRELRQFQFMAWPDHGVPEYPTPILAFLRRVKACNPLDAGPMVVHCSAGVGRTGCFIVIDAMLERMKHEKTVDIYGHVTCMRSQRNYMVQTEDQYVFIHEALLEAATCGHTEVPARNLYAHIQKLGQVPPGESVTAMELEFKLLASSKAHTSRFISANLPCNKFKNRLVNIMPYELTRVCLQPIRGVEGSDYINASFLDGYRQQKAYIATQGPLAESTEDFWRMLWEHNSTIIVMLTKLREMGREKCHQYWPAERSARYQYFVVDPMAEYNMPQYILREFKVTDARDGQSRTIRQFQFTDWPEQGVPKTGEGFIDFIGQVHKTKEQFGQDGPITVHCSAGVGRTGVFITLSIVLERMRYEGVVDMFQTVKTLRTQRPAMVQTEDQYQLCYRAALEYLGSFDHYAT
T4 sequence (P23469 whole entry): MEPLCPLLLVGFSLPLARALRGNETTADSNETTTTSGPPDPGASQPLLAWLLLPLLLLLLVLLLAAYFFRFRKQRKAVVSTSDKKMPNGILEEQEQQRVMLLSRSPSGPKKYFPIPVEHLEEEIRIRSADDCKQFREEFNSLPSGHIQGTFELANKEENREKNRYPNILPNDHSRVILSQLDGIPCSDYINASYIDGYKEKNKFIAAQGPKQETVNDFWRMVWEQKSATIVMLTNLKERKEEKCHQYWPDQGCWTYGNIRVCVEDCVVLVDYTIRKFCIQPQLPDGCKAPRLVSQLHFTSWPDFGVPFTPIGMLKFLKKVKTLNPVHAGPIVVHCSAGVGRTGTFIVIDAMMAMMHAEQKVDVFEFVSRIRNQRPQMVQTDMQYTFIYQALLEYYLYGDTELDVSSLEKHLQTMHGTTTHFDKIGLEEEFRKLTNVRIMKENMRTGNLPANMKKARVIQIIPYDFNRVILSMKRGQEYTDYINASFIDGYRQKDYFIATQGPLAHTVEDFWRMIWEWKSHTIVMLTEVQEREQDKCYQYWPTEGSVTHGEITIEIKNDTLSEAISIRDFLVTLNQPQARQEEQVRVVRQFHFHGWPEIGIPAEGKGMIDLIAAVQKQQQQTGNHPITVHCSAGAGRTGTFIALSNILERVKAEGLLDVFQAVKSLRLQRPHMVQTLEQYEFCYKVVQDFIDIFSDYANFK

Row | inhibition [1] | IC50 [2] [µM] | inhibition [4] | inhibition [6] | IC50 [7] [µM] | inhibition [8] | inhibition [9] | IC50 [11] [µM] | IC50 [13] [µM] | IC50 [14] [µM] | IC50 [15] [µM] | inhibition [16] | inhibition [18] | inhibition [19] | inhibition [20] | IC50 [21] [µM] | other results | SMILES
1 | inactive | > 100 | inactive | inactive | 29 | Active | inactive | 10 | > 100 | > 100 | > 100 | Active | Active | Active | inactive | 16 | inhibition [3]: Tde; T1/2 [5]: 30 s; inhibition [10]: Tde; inhibition [12]: Tde; inhibition [17]: Dose-dependent effect | CC1(C)Cc2c(O)c(C=O)c3c(c2C1)C(=O)OC(O)C3 (configuration not stated) [ILLUDALIC ACID]
2 | inactive | > 100 | inactive | inactive | > 100 | inactive | inactive | > 100 | > 100 | > 100 | > 100 | inactive | Active | inactive | inactive | > 100 | inhibition [22]: Tde | COc1c(C=O)c2c(c3c1CC(C)(C)C3)C(=O)OC(O)C2 (configuration not stated)
3 | inactive |  | inactive | inactive |  | inactive | inactive |  |  |  |  | inactive | inactive | inactive | inactive |  |  | COc1ccc2c(c1C=O)CC(O)OC2=O (configuration not stated)

Reference: ChEMBL document CHEMBL4414670 (J Nat Prod, 2019)
